Data from PMC8367944, “Phase 1 study of the ATR inhibitor berzosertib in combination with cisplatin in patients with advanced solid tumours” (British Journal of Cancer, 2021).
“Also recorded” adds a separate entry of the source. Like-named read-outs stand apart in the source and are kept apart here.

Legend:
[1] = tested on: patients with advanced solid tumours; details: on second infusion of berzosertib; idiosyncratic, no clear relationship to dose; stated as recognised, no reference given; cited from earlier work
[2] = Plasma and urine pharmacokinetics of berzosertib (LC-MS/MS, non-compartmental analysis); format: in vivo, human; details: for AUC(0-inf) / clearance / Cmax / half-life / Vd: plasma; for AUC(0-inf): read-out: AUC0–∞, mean (%CV); for clearance: read-out: CL, mean (%CV) (converted); for Cmax: read-out: Cmax, mean (%CV); for Vd: read-out: Vss, mean (%CV)
Experimental: In cycle 1, plasma samples for PK analysis were collected both pre- and post-dose on days 2–5 (pre-dose, 0.5 h before the end of infusion, at the end of infusion, and 0.5, 1, 2, 3, 7, 23, 47, and 71 h after end of infusion) and day 9 (pre-dose). Plasma samples were also collected on day 2 of cycle 2 (pre-dose and 2 h after the end of infusion). Cumulative urine was also collected for PK assessments on days 2 and 3 of cycle 1 (pre-dose to 3, 3–7, 7–11, and 11–23 h). Berzosertib concentrations were quantified using a validated liquid chromatography tandem-mass spectrometry method and plasma PK were characterised by non-compartmental analyses using Phoenix WinNolin 6.4 (Certara USA Inc., Princeton, NJ, USA).
The safety set was defined as all patients who received at least one dose of study drug; patients within the safety set were further classified into those who received at least one dose of the study drug in the lead-in period (lead-in safety set) and those who received at least one dose during the combination period (combination safety set). PK data were collected in the PK analysis set, defined as all enrolled patients who received at least one dose of berzosertib and provided at least one measurable post-dose sample. For efficacy analyses, the full analysis set was used, comprising all enrolled patients who had received a baseline scan, at least one dose of study drug, and had at least one post-baseline disease assessment.
Standard non-compartmental methods were used to determine PK parameters. Continuous variables were summarised using descriptive summary statistics. Categorical variables (e.g. incidence of a TEAE) were summarised using frequency counts and percentages. TEAEs observed were summarised by system organ class and preferred term according to the Medical Dictionary for Regulatory Activities v.18.0 or higher.

ATR = tested on: ATR; design: method as in PMID 25010037; details: ATR inhibitor; cited from earlier work
[3] = tested on: patients with advanced solid tumours; assay: Phase 1 safety and tolerability: TEAEs (NCI CTCAE v4.0), DLTs, MTD/RP2D; format: in vivo
Experimental: Part B was a single-arm, 3 + 3 dose-escalation Phase 1 study evaluating the safety, tolerability and PK of berzosertib in combination with cisplatin in patients with advanced solid tumours.
Following screening and baseline evaluations, patients received berzosertib i.v. (90 mg/m^2; days 2 and 9) and cisplatin (40 mg/m^2; day 1), administered in 21-day cycles. Based on safety data from two concurrent studies,[14],[15] a 7- to 14-day lead-in period with single doses of berzosertib (140 mg/m^2) alone was also planned.
For the initial dose escalation, the dose of cisplatin was held constant, while the dose of berzosertib was escalated by a maximum of 50% in each cohort. After the berzosertib dose was escalated, the dose of cisplatin could be increased in order to find the maximum-tolerated dose (MTD) of berzosertib in combination with cisplatin; the MTD was defined as the highest dose of berzosertib tolerated in combination with a cisplatin dose between 60 and 100 mg/m^2, inclusive. […] Patients received berzosertib with cisplatin until progressive disease (PD) or unacceptable toxicity.
Safety evaluations (primary endpoint) included continuous assessment of TEAEs, which were graded using National Cancer Institute Common Terminology Criteria for Adverse Events version 4.0. […] Safety was evaluated throughout treatment and was used to inform dose-escalation decisions. […]

[4] = human, intravenous, cycle 1, day 2, berzosertib and cisplatin, berzosertib 90 mg/m^2, n = 2
[5] = human, intravenous, cycle 1, day 2, berzosertib and cisplatin, berzosertib 140 mg/m^2, n = 8
[6] = human, intravenous, cycle 1, day 2, berzosertib and cisplatin, berzosertib 210 mg/m^2, n = 17
[7] = human, iv, 140 mg/m2, lead-in period, berzosertib alone, 140 mg/m^2 i.v., n = 4

CNCc1ccc(-c2cc(-c3nc(-c4ccc(S(=O)(=O)C(C)C)cc4)cnc3N)on2)cc1 [berzosertib]
patients with acute hypersensitivity [1]: < 5%
dose proportionality of plasma exposure ([2]; 90–210 mg/m^2, based on mean plasma concentrations and Cmax): approximately dose proportional
effect of cisplatin on berzosertib pharmacokinetics ([2]; cisplatin given 24 h before berzosertib): no apparent effect; also recorded: does not affect the PK profile
mean percentage of berzosertib excreted in the urine ([2]; cumulative urine, days 2 and 3 of cycle 1): 6%
CL renal ([2]; human, intravenous, cumulative urine, days 2 and 3 of cycle 1, read-out: mean renal clearance (converted)): 78.3 mL/min
AUC(0-inf) [2, 4]: 2820 ng·h/mL
clearance [2, 4]: 1020 mL/min
Cmax [2, 4]: 458 ng/mL
half-life ([2]; human, intravenous, cycle 1, day 2, berzosertib and cisplatin, berzosertib 90 mg/m^2, n = 2, read-out: T1/2, mean (%CV) (converted)): 17 h
Vd [2, 4]: 1260 L
AUC(0-inf) [2, 5]: 4870 ng·h/mL
clearance [2, 5]: 912 mL/min
Cmax [2, 5]: 854 ng/mL
Vd [2, 5]: 1060 L
AUC(0-inf) [2, 6]: 6740 ng·h/mL
clearance [2, 6]: 1040 mL/min
Cmax [2, 6]: 1230 ng/mL
Vd [2, 6]: 1270 L
AUC(0-inf) [2, 7]: 5670 ng·h/mL
clearance [2, 7]: 898 mL/min
Cmax [2, 7]: 652 ng/mL
half-life ([2]; human, intravenous, 140 mg/m^2, berzosertib monotherapy, four patients, read-out: mean terminal elimination half-life (converted)): ~17 h
half-life ([2]; human, intravenous, 140 mg/m^2, plasma, cycle 1, day 2, berzosertib and cisplatin, berzosertib 140 mg/m^2, n = 8, read-out: T1/2, mean (%CV) (converted)): 17.5 h
half-life ([2]; human, intravenous, 210 mg/m^2, plasma, cycle 1, day 2, berzosertib and cisplatin, berzosertib 210 mg/m^2, n = 17, read-out: T1/2, mean (%CV) (converted)): 17.3 h
half-life ([2]; human, iv, 140 mg/m2, plasma, lead-in period, berzosertib alone, 140 mg/m^2 i.v., n = 4, read-out: T1/2, mean (%CV) (converted)): 20.3 h
IC50 (ATR): 19 nM
DLTs during the monotherapy lead-in period ([3]; berzosertib 140 mg/m^2 alone, n = 4): no DLTs
trends in laboratory results, vital signs or ECG parameters attributable to berzosertib ([3]; serum chemistry, haematology, urinalysis): no clinically meaningful trends
